Laboratory results published in ChEMBL document CHEMBL1136048, “2a-[4-(Tetrahydropyridoindol-2-yl)butyl]tetrahydrobenzindole derivatives: new selective antagonists of the 5-hydroxytryptamine7 receptor” (J Med Chem, 2002).

Columns and labels:
[1] = molecular target: 5-hydroxytryptamine receptor 7 (Homo sapiens, UniProt P34969); experiment: Binding affinity to human recombinant 5-hydroxytryptamine 7 receptor in mammalian cells using [3H]5-CT as radioligand; format: cell-based
[2] = molecular target: Serotonin 2 (5-HT2) receptor (Rattus norvegicus, UniProt P30994+P08909+P14842); experiment: In vitro binding affinity to 5-hydroxytryptamine 2 receptor of rat cerebral cortex membranes using [3H]ketanserin as the radioligand; format: tissue-based, Membrane
[3] = molecular target: T1, Serotonin 3 receptor (5HT3) (Mus musculus, UniProt Q9JHJ5+P23979); experiment: In vitro binding affinity at 5-hydroxytryptamine 3 receptor in N1E-115 cells using 3[H]GR-65630 as the radioligand; format: cell-based
T1 sequence (Q9JHJ5 whole entry): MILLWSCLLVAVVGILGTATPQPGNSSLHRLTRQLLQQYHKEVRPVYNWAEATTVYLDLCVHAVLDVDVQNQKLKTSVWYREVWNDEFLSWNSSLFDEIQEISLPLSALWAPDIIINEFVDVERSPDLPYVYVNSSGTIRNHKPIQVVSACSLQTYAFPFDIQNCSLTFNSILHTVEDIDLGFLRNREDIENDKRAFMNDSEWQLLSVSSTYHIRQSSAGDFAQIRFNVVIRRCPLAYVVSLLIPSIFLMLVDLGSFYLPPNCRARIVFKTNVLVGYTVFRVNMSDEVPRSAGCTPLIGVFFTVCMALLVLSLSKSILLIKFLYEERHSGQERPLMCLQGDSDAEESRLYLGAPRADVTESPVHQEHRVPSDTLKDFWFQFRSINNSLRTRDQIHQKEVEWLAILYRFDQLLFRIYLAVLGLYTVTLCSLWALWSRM
T1 sequence (P23979 whole entry): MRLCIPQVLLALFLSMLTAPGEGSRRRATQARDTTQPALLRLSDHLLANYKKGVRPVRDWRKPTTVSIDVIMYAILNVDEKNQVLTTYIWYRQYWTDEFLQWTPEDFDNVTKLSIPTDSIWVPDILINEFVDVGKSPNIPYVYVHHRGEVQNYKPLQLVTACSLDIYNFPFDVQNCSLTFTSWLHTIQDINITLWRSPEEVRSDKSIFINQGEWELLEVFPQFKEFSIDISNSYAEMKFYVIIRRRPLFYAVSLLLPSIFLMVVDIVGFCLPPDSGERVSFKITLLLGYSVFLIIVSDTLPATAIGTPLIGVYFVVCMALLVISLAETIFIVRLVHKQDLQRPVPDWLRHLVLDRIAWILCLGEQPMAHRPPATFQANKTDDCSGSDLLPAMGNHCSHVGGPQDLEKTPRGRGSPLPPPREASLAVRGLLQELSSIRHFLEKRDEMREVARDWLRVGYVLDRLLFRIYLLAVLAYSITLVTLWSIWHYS

[4] = molecular target: 5-hydroxytryptamine receptor 1B (Rattus norvegicus, UniProt P28564); experiment: In vitro binding affinity at 5-hydroxytryptamine 1B receptor in rat striatal […] using [125I](-)-iodocyanopindolol as the radioligand
Sequence of 5-hydroxytryptamine receptor 1B (P28564 whole entry): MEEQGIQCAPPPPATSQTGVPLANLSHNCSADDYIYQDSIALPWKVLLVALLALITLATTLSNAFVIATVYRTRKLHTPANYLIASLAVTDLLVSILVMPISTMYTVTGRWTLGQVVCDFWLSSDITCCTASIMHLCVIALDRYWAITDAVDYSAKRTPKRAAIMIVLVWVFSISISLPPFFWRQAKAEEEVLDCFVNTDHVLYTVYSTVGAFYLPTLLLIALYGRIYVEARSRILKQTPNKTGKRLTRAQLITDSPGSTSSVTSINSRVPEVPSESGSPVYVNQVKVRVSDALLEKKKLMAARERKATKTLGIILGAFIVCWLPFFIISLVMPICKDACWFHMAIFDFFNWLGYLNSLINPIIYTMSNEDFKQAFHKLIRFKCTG

[5] = molecular target: 5-hydroxytryptamine receptor 4 (Cavia porcellus, UniProt O70528); experiment: In vitro binding affinity at 5-hydroxytryptamine 4 receptor in guinea pig striatum using 3[H]GR-113808 as the radioligand; format: tissue-based
Sequence of 5-hydroxytryptamine receptor 4 (O70528 whole entry): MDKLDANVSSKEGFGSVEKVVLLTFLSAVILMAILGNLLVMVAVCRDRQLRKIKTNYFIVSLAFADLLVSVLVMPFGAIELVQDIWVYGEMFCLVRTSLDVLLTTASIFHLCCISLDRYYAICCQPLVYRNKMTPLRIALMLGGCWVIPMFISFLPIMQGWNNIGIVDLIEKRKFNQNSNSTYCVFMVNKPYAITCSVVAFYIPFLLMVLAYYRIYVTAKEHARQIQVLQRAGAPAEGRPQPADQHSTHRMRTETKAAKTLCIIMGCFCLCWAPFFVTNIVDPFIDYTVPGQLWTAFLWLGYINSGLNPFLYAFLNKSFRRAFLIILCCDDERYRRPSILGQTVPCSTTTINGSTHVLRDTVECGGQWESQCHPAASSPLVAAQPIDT

[6] = molecular target: 5-hydroxytryptamine receptor 6 (Homo sapiens, UniProt P50406); experiment: In vitro binding affinity at human recombinant 5-hydroxytryptamine 6 receptor in mammalian cells using 3[H]LSD as the radioligand; format: cell-based
Sequence of 5-hydroxytryptamine receptor 6 (P50406 whole entry): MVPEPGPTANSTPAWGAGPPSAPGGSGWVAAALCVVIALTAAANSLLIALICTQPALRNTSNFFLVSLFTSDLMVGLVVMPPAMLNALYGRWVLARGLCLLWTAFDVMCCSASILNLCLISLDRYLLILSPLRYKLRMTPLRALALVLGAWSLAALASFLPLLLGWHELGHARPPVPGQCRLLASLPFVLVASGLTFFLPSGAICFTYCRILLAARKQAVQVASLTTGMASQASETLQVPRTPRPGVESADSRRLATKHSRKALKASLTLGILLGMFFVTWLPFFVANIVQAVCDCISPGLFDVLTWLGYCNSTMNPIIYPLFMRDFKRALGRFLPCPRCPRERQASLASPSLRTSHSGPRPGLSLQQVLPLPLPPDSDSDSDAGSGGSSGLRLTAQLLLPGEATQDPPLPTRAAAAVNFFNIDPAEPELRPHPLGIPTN

[7] = molecular target: T2, 5-hydroxytryptamine receptor 1A (Homo sapiens, UniProt P08908); experiment: In vitro binding affinity at human recombinant 5-hydroxytryptamine 1A receptor in mammalian cells using 3[H]8-OH-DPAT as the radioligand; format: cell-based
T2 sequence (P08908 whole entry): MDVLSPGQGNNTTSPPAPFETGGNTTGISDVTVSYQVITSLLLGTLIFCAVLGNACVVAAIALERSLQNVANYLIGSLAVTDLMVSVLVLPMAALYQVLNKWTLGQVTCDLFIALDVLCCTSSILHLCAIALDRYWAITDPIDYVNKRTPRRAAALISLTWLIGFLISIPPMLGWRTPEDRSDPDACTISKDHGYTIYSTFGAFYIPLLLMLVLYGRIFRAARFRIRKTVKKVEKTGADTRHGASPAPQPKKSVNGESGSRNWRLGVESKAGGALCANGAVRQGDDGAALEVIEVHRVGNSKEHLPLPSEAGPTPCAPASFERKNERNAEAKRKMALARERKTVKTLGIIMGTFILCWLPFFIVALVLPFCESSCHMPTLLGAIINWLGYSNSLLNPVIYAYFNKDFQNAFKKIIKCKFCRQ

Sequence of 5-hydroxytryptamine receptor 7 (P34969 whole entry): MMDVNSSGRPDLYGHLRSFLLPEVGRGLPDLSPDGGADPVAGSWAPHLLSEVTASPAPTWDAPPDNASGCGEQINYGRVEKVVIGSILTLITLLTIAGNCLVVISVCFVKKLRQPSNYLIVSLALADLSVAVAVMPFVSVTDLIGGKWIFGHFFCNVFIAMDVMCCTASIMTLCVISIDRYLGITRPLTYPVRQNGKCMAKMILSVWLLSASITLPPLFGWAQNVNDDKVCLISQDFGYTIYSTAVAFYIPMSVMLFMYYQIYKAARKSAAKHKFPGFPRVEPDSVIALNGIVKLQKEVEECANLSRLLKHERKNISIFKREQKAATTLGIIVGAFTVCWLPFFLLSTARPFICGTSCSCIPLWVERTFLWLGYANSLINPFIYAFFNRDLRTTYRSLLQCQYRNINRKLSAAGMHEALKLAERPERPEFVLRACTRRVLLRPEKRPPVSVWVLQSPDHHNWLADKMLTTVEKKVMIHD

Structure (SMILES)	Ki [1] [nM]	Log Ki [2]	further results
NC(=O)c1ccccc1N1CCN(CCCCC23CCCc4cccc(c42)NC3=O)CC1 (stereo not drawn)	17.4	-6.05	
CN(C)C(=O)n1c2c(c3ccccc31)CCN(CCCCC13CCCc4cccc(c41)NC3=O)C2 (stereo not drawn)	7.08	-6.12	
NCCc1c[nH]c2ccc(C(N)=O)cc12		< -6	
Cc1cccc(C)c1N1CCN(CCCCC23CCCc4cccc(c42)NC3=O)CC1 (stereo not drawn)	148	-5.85	
CNC(=O)Cn1c2c(c3ccccc31)CCN(CCCCC13CCCc4cccc(c41)NC3=O)C2 (stereo not drawn)	3.55	< -6	Log Ki [3]: > -6; Ki [4]: > 1000 nM; Ki [5]: 490 nM; Ki [6]: > 1000 nM; Ki [7]: 129 nM
O=C1Nc2ccc(Br)c3c2C1(CCCCN1CC=C(c2ccccc2)CC1)CCC3 (stereo not drawn)	12.3	-6.54	
Cc1ccc(C2=CCN(CCCCC34CCCc5cccc(c53)NC4=O)CC2)cc1 (stereo not drawn)	4.79	-6.94	
O=C1Nc2cccc3c2C1(CCCCN1CCC(O)(c2ccccc2)CC1)CCC3 (stereo not drawn)	43.7	-6.35	
COc1ccc(N2CCN(CCCCC34CCCc5cccc(c53)NC4=O)CC2)cc1 (stereo not drawn)	20.4	-6.69	
O=C1Nc2cccc3c2C1(CCCCN1CCN(c2ccccc2C(F)(F)F)CC1)CCC3 (stereo not drawn)	74.1	-5.86	
COc1ccc2[nH]c3c(c2c1)CCN(CCCCC12CCCc4cccc(c41)NC2=O)C3 (stereo not drawn)	29.5	-6.17	
O=C1Nc2cccc3c2C1(CCCCN1CCC(c2ccccc2)CC1)CCC3 (stereo not drawn)	3.98	-6.84	
COCn1c2c(c3ccccc31)CCN(CCCCC13CCCc4cccc(c41)NC3=O)C2 (stereo not drawn)	17	-6.24	
Cn1c2c(c3ccccc31)CCN(CCCCC13CCCc4cccc(c41)NC3=O)C2 (stereo not drawn)	19.1	-6.28	
O=C1Nc2ccc(O)c3c2C1(CCCCN1CC=C(c2ccccc2)CC1)CCC3 (stereo not drawn)	8.13	-7.4	
CC(=O)C1(c2ccccc2)CCN(CCCCC23CCCc4cccc(c42)NC3=O)CC1 (stereo not drawn)	72.4	-7.01	
NC(=O)C1(c2ccccc2)CCN(CCCCC23CCCc4cccc(c42)NC3=O)CC1 (stereo not drawn)	224	-7.8	
COc1cccc(N2CCN(CCCCC34CCCc5cccc(c53)NC4=O)CC2)c1 (stereo not drawn)	2.34	-7.19	

Structure (SMILES)	Ki [1] [nM]	Log Ki [2]	further results
CN1C(=O)C2(CCCCN3CC=C(c4ccccc4)CC3)CCCc3cccc1c32 (stereo not drawn)	25.1	-6.88	
COC1(c2ccccc2)CCN(CCCCC23CCCc4cccc(c42)NC3=O)CC1 (stereo not drawn)	21.9	-6.43	
CC(=O)n1c2c(c3ccccc31)CCN(CCCCC13CCCc4cccc(c41)NC3=O)C2 (stereo not drawn)	6.46	-6.27	
O=C1Nc2cccc3c2C1(CCCCN1CC=C(c2ccc(F)cc2)CC1)CCC3 (stereo not drawn)	3.55	-7.1	
NC(=O)c1ccc2c3c1CCCC3(CCCCN1CC=C(c3ccccc3)CC1)C(=O)N2 (stereo not drawn)	417	-6.8	
CC(=O)c1ccc2c3c1CCCC3(CCCCN1CC=C(c3ccccc3)CC1)C(=O)N2 (stereo not drawn)	97.7	-7.12	
O=C1Nc2cccc3c2C1(CCCCN1CCc2c([nH]c4ccccc24)C1)CCC3 (stereo not drawn)	5.75	-6.62	
NC(=O)Cn1c2c(c3ccccc31)CCN(CCCCC13CCCc4cccc(c41)NC3=O)C2 (stereo not drawn)	8.71	-6.09	
O=C1Nc2cccc3c2C1(CCCCN1CCN(c2ccccc2[N+](=O)[O-])CC1)CCC3 (stereo not drawn)	24	-7.34	
CC(=O)c1ccccc1N1CCN(CCCCC23CCCc4cccc(c42)NC3=O)CC1 (stereo not drawn)	7.94	-6.45	
O=C1Nc2cccc3c2C1(CCCCN1CCN(c2ccccc2Cl)CC1)CCC3 (stereo not drawn)	12.3	-7.01	
O=C1Nc2cccc3c2C1(CCCCN1CCN(c2ncccn2)CC1)CCC3 (stereo not drawn)	45.7	-6.91	
O=C1Nc2cccc3c2C1(CCCCN1CCN(C2CCCCC2)CC1)CCC3 (stereo not drawn)		< -6	
Cc1ccccc1N1CCN(CCCCC23CCCc4cccc(c42)NC3=O)CC1 (stereo not drawn)	10.5	-7.35	
CN(C)C(=O)Cn1c2c(c3ccccc31)CCN(CCCCC13CCCc4cccc(c41)NC3=O)C2 (stereo not drawn)	19.1	< -6	
COc1ccc2c3c1CCCC3(CCCCN1CC=C(c3ccccc3)CC1)C(=O)N2 (stereo not drawn)	110	-7.55	
C=CCn1c2c(c3ccccc31)CCN(CCCCC13CCCc4cccc(c41)NC3=O)C2 (stereo not drawn)	6.03	-6.55	
